Reference: PubChem BioAssay AID520 (NMMLSC, 2006)
pKi: −log10 of the molar value. Active and inactive are the calls of the source. The rule behind the calls is not given here.

Target: N-formyl peptide receptor 2 (Homo sapiens) (UniProt P25090)
Assay: FPRL1 binding inhibitor potency, dose response, cell-based, FPR counter-screen, fluorescent ligand (AID 520)
Details: FPRL1-expressing cells, fluorescent ligand binding inhibition; for pKi: measured here: FPRL1 binding Ki

Chain of N-formyl peptide receptor 2 (Homo sapiens) (P25090 whole entry, looked up): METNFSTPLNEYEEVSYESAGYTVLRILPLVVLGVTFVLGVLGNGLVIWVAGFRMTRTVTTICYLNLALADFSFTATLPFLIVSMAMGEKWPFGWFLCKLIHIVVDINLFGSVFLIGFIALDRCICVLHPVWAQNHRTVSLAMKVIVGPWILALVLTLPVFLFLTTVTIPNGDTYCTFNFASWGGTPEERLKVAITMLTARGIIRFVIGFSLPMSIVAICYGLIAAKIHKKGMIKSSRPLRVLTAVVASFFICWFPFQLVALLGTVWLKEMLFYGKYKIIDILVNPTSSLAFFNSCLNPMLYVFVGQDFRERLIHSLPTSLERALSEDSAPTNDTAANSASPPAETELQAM

Row | SMILES | pKi | IC50
1 | CCOC(=O)CSc1nnc(CNC(=O)c2cc(OCC)c(OCC)c(OCC)c2)n1C | 5.17 | –
2 | O=S(=O)(c1cnc[nH]1)N1CCc2ccccc21 | < 4.39 | –
3 | CCOC(=O)c1c(NC(=O)C2C3CCC(O3)C2C(=O)O)sc(C)c1-c1ccc(C)cc1 (stereo not drawn) | < 4.39 | –
4 | CCOC(=O)CCn1nc(-c2ccc(Cl)cc2)cc1N | < 4.39 | –
5 | C/C(=C1/SC(N2CCCC2)=NC1=O)c1ccc(Br)cc1 | < 4.39 | > 66.7 µM (inactive)
6 | CCOC(=O)c1cc(NC(=O)C2C3CCC(O3)C2C(=O)O)cc(C(=O)OCC)c1 (stereo not drawn) | < 4.39 | –
7 | COc1ccc(-c2cc(C(F)(F)F)nc(N3CCCCC3)n2)cc1OC | < 4.39 | –
8 | CCOC(=O)N1CCC(NC(=O)c2cc(C(=O)Nc3ccc(OC)c(OC)c3)ccc2CO)CC1 | < 4.39 | –
9 | CCc1c(C)nc2c(C#N)c(C)[nH]n2c1=O | < 4.39 | –
10 | COc1ccc2ccccc2c1C1CC(=O)N2CN(C3CCCCC3)CSC2=C1C#N (stereo not drawn) | < 4.39 | –
11 | COC(=O)Cc1[nH]nc2c1C(C1C=CCCC1)C(C#N)=C(N)O2 (stereo not drawn) | < 4.39 | > 66.7 µM (inactive)
12 | CCOC(=O)Cc1cc(=O)n2[nH]c(C)c(-c3ccc(Cl)cc3)c2n1 | < 4.39 | –
13 | CCCS(=O)(=O)N1CCCC(C(=O)N2CCC(Cc3ccccc3)CC2)C1 (stereo not drawn) | < 4.39 | –
14 | Cc1sc(NC(=O)C2CCCCC2C(=O)O)c(C(N)=O)c1-c1ccc(C(C)(C)C)cc1 (stereo not drawn) | < 4.39 | –
15 | COc1ccc(-c2cn3cccnc3n2)cc1NC(=O)C1CCCC1 | < 4.39 | –
16 | CC(C)CN(CC(C)C)C(=O)CS(=O)(=O)Cc1ccccc1 | < 4.39 | –
17 | CCOC(=O)c1c(NC(=O)c2cc(C3CC3)on2)sc2c1CCCC2 | < 4.39 | –
18 | CCCC(=O)Nc1c2c(nn1-c1ccc(OC)cc1)CS(=O)C2 (stereo not drawn) | < 4.39 | –
19 | O=C(NCC1CCCO1)c1ccc(NC(=O)C2CCCCC2C(=O)O)cc1 (stereo not drawn) | < 4.39 | –
20 | COc1ccc(-c2nnc(Nc3nc4c(OC)cccc4s3)o2)cc1 | < 4.39 | –

Row | SMILES | pKi | IC50
21 | COc1ccc(NC(=O)C2C3CCC(C3)C2C(=O)O)cc1OC (stereo not drawn) | < 4.39 | –
22 | CCOc1cc(C(=O)NCc2nnc(SCC(=O)OC)n2C)cc(OCC)c1OCC | 4.95 | –
23 | CC1CCN(c2nc(-c3ccccc3)c(C#N)c(=O)[nH]2)CC1 | < 4.39 | –
24 | Cc1c(C)c2cc(Cl)c(O)c(CN3CCCCC3)c2oc1=O | < 4.39 | –
25 | Cc1[nH]n2c(=O)c3c(nc2c1-c1ccc(Cl)cc1)CCC3 | < 4.39 | –
26 | O=C(O)C1CCCCC1C(=O)Nc1ccccc1Cl (stereo not drawn) | < 4.39 | –
27 | Cc1ccc(NC(=O)c2oc3ccc(S(=O)(=O)N4CCOCC4)cc3c2C)cc1C | < 4.39 | –
28 | COC(=O)c1[nH]c(C)c(/C(O)=C2\C(=O)C(=O)N(CCCN3CCOCC3)C2c2ccccn2)c1C (stereo not drawn) | < 4.39 | > 66.7 µM (inactive)
29 | CCC(NC(=O)Nc1cc(OC)c(OC)c(OC)c1)(C(F)(F)F)C(F)(F)F | < 4.39 | –
30 | COc1ccc(-c2cc(C(F)(F)F)nc(N3CCN(Cc4ccccc4)CC3)n2)cc1OC | 5.14 | –
31 | COc1ccc(CC(=O)Nc2ccc(-c3nnc(-c4ccc(C)cc4)o3)cc2)cc1 | < 4.39 | –
32 | CCN(CC)c1ccc(C=N/C(C#N)=C(\N)C#N)cc1 | < 4.39 | > 66.7 µM (inactive)
33 | CCCCCNC(=O)c1ccc2c(=O)[nH]c3c(C(=O)NCC4CCCO4)sc(=S)n3c2c1 (stereo not drawn) | < 4.39 | –
34 | N[C@@H](Cc1ccc(O)c(I)c1)C(=O)O | < 4.39 | –
35 | COc1cccc(-c2nc(CS(=O)(=O)CC(=O)NCCC(C)C)c(C)o2)c1 | < 4.39 | –
36 | COc1ccc(C)cc1NC(=O)C1CCCCC1C(=O)O (stereo not drawn) | < 4.39 | –
37 | COc1ccc(CN(C(=O)c2ccccc2OC)C2CCS(=O)(=O)C2)cc1 (stereo not drawn) | < 4.39 | –
38 | COc1ccc(-c2cn3cccnc3n2)cc1NC(=O)C1CC1 | 5.34 | –
39 | CN(C)c1nc(N(C)C)nc(N(C)C)n1 | < 4.39 | –

Next, values leading:

Row | pKi | IC50 | SMILES
40 | < 4.39 | – | Cc1nc2c(C#N)c[nH]n2c(=O)c1Cc1ccccc1
41 | < 4.39 | > 66.7 µM (inactive) | COc1ccc(/C(O)=C2/C(=O)C(=O)N(c3nc(C)c(C)s3)C2c2ccco2)cc1 (stereo not drawn)
42 | < 4.39 | > 66.7 µM (inactive) | C=CCOc1ccc(C2C(C(=O)c3ccco3)=C(O)C(=O)N2Cc2cccnc2)cc1 (stereo not drawn)
43 | < 4.39 | > 66.7 µM (inactive) | COCCCN1C(=O)C(O)=C(C(=O)c2ccco2)C1c1ccc(Br)cc1 (stereo not drawn)
44 | < 4.39 | > 66.7 µM (inactive) | O=C(C1=C(O)C(=O)N(CC2CCCO2)C1c1cccnc1)c1ccco1 (stereo not drawn)
45 | < 4.39 | > 66.7 µM (inactive) | O=C(C1=C(O)C(=O)N(CCc2ccccc2)C1c1cccnc1)c1ccco1 (stereo not drawn)
46 | < 4.39 | > 66.7 µM (inactive) | O=C(C1=C(O)C(=O)N(Cc2ccco2)C1c1ccccc1)c1cccs1 (stereo not drawn)
47 | < 4.39 | – | Cc1c(C(=O)NC2CCCc3ccccc32)oc2ccc(S(=O)(=O)N3CCOCC3)cc12 (stereo not drawn)
48 | < 4.39 | – | O=C(Nc1ccc(Nc2ccccc2)cc1)c1ccc(Br)o1
49 | < 4.39 | – | CCC(CC)C(=O)Nc1c2cnn(-c3ccccc3)c2nc(=O)n1-c1ccccc1
50 | < 4.39 | > 66.7 µM (inactive) | O=C1N=c2ccccc2=C1c1sc(=S)n(CC2CCCO2)c1O (stereo not drawn)
51 | < 4.39 | > 66.7 µM (inactive) | CCOc1ccc(C2C(C(=O)c3cccs3)=C(O)C(=O)N2CCCn2ccnc2)cc1 (stereo not drawn)
52 | < 4.39 | – | O=C(Cn1cnc2c(cnn2-c2ccc(F)cc2)c1=O)OCc1ccccc1
53 | < 4.39 | – | CCC(=O)Nc1c(C#N)c2nc3ccccc3nc2n1-c1ccccc1C
54 | < 4.39 | – | CCOC(=O)c1c(-c2ccc(-c3ccccc3)cc2)csc1NC(=O)C1C2CCC(O2)C1C(=O)O (stereo not drawn)
55 | < 4.39 | > 66.7 µM (inactive) | O=C(C1=C(O)C(=O)N(CCCN2CCOCC2)C1c1ccccn1)c1cc2ccccc2o1 (stereo not drawn)
56 | < 4.39 | > 66.7 µM (inactive) | COCCCN1C(=O)C(=O)/C(=C(/O)c2ccc(OC)cc2C)C1c1cccnc1 (stereo not drawn)
57 | < 4.39 | > 66.7 µM (inactive) | Cc1ccc(/C(O)=C2/C(=O)C(=O)N(CCN3CCOCC3)C2c2cccnc2)cc1 (stereo not drawn)
58 | < 4.39 | – | Cc1c(CNCc2cccs2)c(C(=O)O)c(C)n1Cc1ccccc1

Row | pKi | IC50 | SMILES
59 | < 4.39 | > 66.7 µM (inactive) | Cc1ccc(C2/C(=C(/O)c3cnn(-c4ccccc4)c3C)C(=O)C(=O)N2CCN2CCOCC2)o1 (stereo not drawn)
60 | < 4.39 | > 66.7 µM (inactive) | COCCCN1C(=O)C(O)=C(C(=O)c2ccco2)C1c1cccc(Br)c1 (stereo not drawn)
61 | < 4.39 | – | Cc1nc2c(-c3ccc(F)cc3)c(C)nn2c(C)c1CCC(=O)NC(C)CCc1ccco1 (stereo not drawn)
62 | < 4.39 | – | Cc1cc(SCC(N)=O)nc(SCC(=O)c2ccccc2)n1
63 | < 4.39 | > 66.7 µM (inactive) | COc1cccc(OC)c1/C(O)=C(\C#N)c1nc2ccccc2[nH]1
64 | < 4.39 | – | O=c1cc(-c2ccccc2)nc(N2CCN(Cc3ccccc3)CC2)[nH]1
65 | < 4.39 | > 66.7 µM (inactive) | Cc1ccc(C(=O)C2=C(O)C(=O)N(Cc3ccccc3)C2c2cccnc2)o1 (stereo not drawn)
66 | < 4.39 | – | Nc1ccc(Nc2ccccc2)cc1
67 | < 4.39 | > 66.7 µM (inactive) | CCOc1ccc(/C(O)=C2/C(=O)C(=O)N(c3nc(C)c(C)s3)C2c2ccco2)cc1 (stereo not drawn)
68 | < 4.39 | – | COc1ccccc1Oc1c(C)oc2cc(OC(=O)c3ccco3)ccc2c1=O
69 | < 4.39 | > 66.7 µM (inactive) | COc1cccc(C2C(C(=O)c3cc4ccccc4o3)=C(O)C(=O)N2c2cc(C)on2)c1OC (stereo not drawn)
70 | < 4.39 | > 66.7 µM (inactive) | COc1cc(C2C(C(=O)c3ccc(C)o3)=C(O)C(=O)N2Cc2cccnc2)ccc1O (stereo not drawn)
71 | < 4.39 | > 66.7 µM (inactive) | Cc1ccc(/C(O)=C2\C(=O)C(=O)N(c3cc(C)on3)C2c2cccc(Br)c2)cc1 (stereo not drawn)
72 | < 4.39 | > 66.7 µM (inactive) | COC(=O)c1[nH]c(C)c(/C(O)=C2\C(=O)C(=O)N(CCN3CCOCC3)C2c2cccs2)c1C (stereo not drawn)
73 | < 4.39 | – | O=C(O)C1CC=CCC1C(=O)N1CCN(c2nc(-c3ccccc3)c3ccccc3n2)CC1 (stereo not drawn)
74 | < 4.39 | – | Cc1ccc(C)c(-n2c(CNC(=O)c3ccco3)nnc2SCC(=O)N2CCc3ccccc32)c1
75 | < 4.39 | – | CCOC(=O)c1ccc(NC(=O)Nc2ccc3c4c(cccc24)C(=O)N3CC)cc1
76 | < 4.39 | – | COCCN1Cc2cccc(C(=O)NCc3ccc4c(c3)OCO4)c2C1=O
77 | < 4.39 | > 66.7 µM (inactive) | COC(=O)c1ccc(C2/C(=C(/O)c3ccc(OC)cc3)C(=O)C(=O)N2Cc2ccco2)cc1 (stereo not drawn)

Row | pKi | IC50 | SMILES
78 | < 4.39 | > 66.7 µM (inactive) | COCCN1C(=O)C(O)=C(C(=O)c2ccco2)C1c1cccc(Oc2ccccc2)c1 (stereo not drawn)
79 | < 4.39 | > 66.7 µM (inactive) | COc1cccc(C2/C(=C(\O)c3ccc(OC)c(OC)c3)C(=O)C(=O)N2c2cc(C)on2)c1 (stereo not drawn)
80 | < 4.39 | – | CCCNC(=S)Nc1ccc(Nc2ccccc2)cc1
81 | < 4.39 | > 66.7 µM (inactive) | COc1cccc(/C(O)=C2/C(=O)C(=O)N(Cc3cccnc3)C2c2ccco2)c1 (stereo not drawn)
82 | < 4.39 | > 66.7 µM (inactive) | Cc1cc(N2C(=O)C(=O)/C(=C(/O)c3ccc(F)cc3)C2c2cccc(Br)c2)no1 (stereo not drawn)
83 | < 4.39 | > 66.7 µM (inactive) | CCOc1cccc(/C(O)=C2/C(=O)C(=O)N(Cc3cccnc3)C2c2ccco2)c1 (stereo not drawn)
84 | < 4.39 | > 66.7 µM (inactive) | O=C(C1=C(O)C(=O)N(c2ncccn2)C1c1ccc(Cl)c(Cl)c1)c1ccco1 (stereo not drawn)
85 | < 4.39 | – | CC(C)(C)CC(=O)Nc1ccc(Nc2ccccc2)cc1
86 | < 4.39 | – | Cc1ccc(Nc2ccc(C(=O)O)cc2N)cc1
87 | < 4.39 | > 66.7 µM (inactive) | Cc1ccc(C(=O)C2=C(O)C(=O)N(CCCn3ccnc3)C2c2ccc(OC(C)C)cc2)o1 (stereo not drawn)
88 | < 4.39 | – | Cc1cccc(C2CC(c3ccc(Cl)cc3)Nc3nc(N)nn32)c1 (stereo not drawn)
89 | < 4.39 | – | COc1ccc2c(=O)c(-c3cnn(-c4ccccc4)c3)c(C)oc2c1
90 | < 4.39 | > 66.7 µM (inactive) | O=C(C1=C(O)C(=O)N(c2ncccn2)C1c1ccc(Cl)cc1)c1ccco1 (stereo not drawn)
91 | < 4.39 | – | CCCOc1ccc2c(=O)c(N3C(=O)c4ccccc4C3=O)c(C)oc2c1
92 | < 4.39 | – | O=C(c1ccc(Cl)cc1)N(Cc1cccs1)C1CCS(=O)(=O)C1 (stereo not drawn)
93 | < 4.39 | – | Cc1nnc(SCc2cnc(-c3ccccc3)o2)[nH]c1=O
94 | < 4.39 | – | COc1ccc2c(=O)c(N3C(=O)c4ccccc4C3=O)c(C)oc2c1
95 | < 4.39 | – | Clc1ccc(C2CC(c3cccs3)n3ncnc3N2)cc1Cl (stereo not drawn)
